Assays:
β2 adrenergic receptor = experiment: Upregulation of GURC-modified β2 adrenergic receptor (luciferase assay); assay type: cell-based; details: FIG. 15B
niacin receptor = experiment: Upregulation of GURC-modified niacin receptor (luciferase assay); assay type: cell-based; details: FIG. 15A
histamine receptor H3 = details: FIG. 14
histamine receptor H3, sequence (as listed by the source): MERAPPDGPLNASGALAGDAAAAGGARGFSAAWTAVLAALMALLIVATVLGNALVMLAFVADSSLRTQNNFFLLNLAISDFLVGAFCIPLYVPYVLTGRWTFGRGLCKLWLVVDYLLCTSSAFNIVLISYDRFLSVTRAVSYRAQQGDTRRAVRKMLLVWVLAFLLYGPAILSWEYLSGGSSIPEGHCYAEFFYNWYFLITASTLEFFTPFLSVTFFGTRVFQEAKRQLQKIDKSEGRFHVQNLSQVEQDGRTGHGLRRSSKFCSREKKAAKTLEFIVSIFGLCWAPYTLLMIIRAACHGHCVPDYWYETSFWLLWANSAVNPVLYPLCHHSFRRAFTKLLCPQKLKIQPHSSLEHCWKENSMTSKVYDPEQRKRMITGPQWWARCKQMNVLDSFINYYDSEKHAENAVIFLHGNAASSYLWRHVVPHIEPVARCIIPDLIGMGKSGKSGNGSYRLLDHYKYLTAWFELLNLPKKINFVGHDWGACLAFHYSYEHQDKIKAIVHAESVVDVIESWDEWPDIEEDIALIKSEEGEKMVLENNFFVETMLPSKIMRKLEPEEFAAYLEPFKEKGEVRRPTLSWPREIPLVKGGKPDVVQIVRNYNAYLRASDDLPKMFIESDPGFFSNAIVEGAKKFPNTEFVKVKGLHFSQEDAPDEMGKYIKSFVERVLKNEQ

| Molecule | upregulation of the β2 adrenergic receptor (β2 adrenergic receptor) | upregulation of the niacin receptor (niacin receptor) | potency at histamine receptor H3 (histamine receptor H3) |
| --- | --- | --- | --- |
| Nc1ncnc2c1ncn2[C@@H]1O[C@H](COP(=O)(O)OP(=O)(O)OC[C@@H]2O[C@H]([n+]3cccc(C(=O)[O-])c3)[C@@H](O)[C@H]2O)[C@@H](O)[C@H]1OP(=O)(O)O [NAADP-β] | lack of dose-dependent upregulation | dose-dependent upregulation | – |
| COC(=O)c1cccnc1 [methyl nicotinate] | lack of dose-dependent upregulation | dose-dependent upregulation | – |
| Methyl histamine | – | – | low potency |

Source: patent publication US20080009551A1, “Methods and Compositions for Identifying Modulators of G Protein-Coupled Receptors” (Arena Pharmaceuticals, Inc., priority 2003, published 2008)
